Data from paper PMC7392148 (Bioorganic & medicinal chemistry, 2020).
Values belong to the compound of their own block, whether it stands above or below them.

Key:
panel of 168 GPCRs = assay: PathHunter β-arrestin cell-based assays, antagonist primary screen; conditions: for antagonistic activity in the primary screen: 20 μM, significant = ≥80% inhibition; for hit rate: from the 168 GPCRs tested; for number of GPCRs antagonized at ≥80% inhibition: primary screen at 20 μM
AVPR1A = assay: PathHunter β-arrestin antagonist assay; type: cell-based; conditions: primary screen at 20 μM
AVPR1B = assay: PathHunter β-arrestin antagonist assay; type: cell-based; conditions: primary screen at 20 μM
[1] = test system: dopamine D2b receptor (DRD2L); assay: PathHunter β-arrestin antagonist assay; type: cell-based; conditions: primary screen at 20 μM
[2] = test system: hydroxytryptamine receptor (HTR1B); assay: PathHunter β-arrestin antagonist assay; type: cell-based; conditions: primary screen at 20 μM
ADRA2A = assay: PathHunter β-arrestin antagonist assay; type: cell-based; conditions: primary screen at 20 μM
[3] = target: T1, follicle-stimulating hormone receptor (FSHR) (Homo sapiens, UniProt P23945); assay: PathHunter β-arrestin antagonist assay; type: cell-based
T1 sequence (P23945 18-695): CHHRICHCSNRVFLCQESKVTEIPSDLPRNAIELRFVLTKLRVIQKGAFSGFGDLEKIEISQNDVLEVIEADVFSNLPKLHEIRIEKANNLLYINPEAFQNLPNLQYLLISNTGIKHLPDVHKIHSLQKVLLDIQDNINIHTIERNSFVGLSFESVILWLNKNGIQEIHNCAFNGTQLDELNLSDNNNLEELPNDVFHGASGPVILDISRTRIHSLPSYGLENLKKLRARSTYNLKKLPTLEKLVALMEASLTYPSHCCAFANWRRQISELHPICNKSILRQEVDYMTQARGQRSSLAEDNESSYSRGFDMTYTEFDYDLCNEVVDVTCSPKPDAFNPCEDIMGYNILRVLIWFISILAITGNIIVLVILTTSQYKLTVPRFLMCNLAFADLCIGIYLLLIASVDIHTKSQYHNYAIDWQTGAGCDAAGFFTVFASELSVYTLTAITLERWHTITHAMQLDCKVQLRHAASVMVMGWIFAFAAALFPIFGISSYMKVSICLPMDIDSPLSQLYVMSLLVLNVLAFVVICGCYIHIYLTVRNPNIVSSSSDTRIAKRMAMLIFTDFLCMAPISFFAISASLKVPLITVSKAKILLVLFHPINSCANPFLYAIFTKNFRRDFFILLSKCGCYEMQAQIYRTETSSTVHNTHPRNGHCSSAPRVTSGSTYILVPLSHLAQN

[4] = target: T2, neuropeptide S receptor 1 (NPSR1B) (Homo sapiens, UniProt Q6W5P4); assay: PathHunter β-arrestin antagonist assay; type: cell-based
T2 sequence (Q6W5P4 1-377 isoform Q6W5P4-4): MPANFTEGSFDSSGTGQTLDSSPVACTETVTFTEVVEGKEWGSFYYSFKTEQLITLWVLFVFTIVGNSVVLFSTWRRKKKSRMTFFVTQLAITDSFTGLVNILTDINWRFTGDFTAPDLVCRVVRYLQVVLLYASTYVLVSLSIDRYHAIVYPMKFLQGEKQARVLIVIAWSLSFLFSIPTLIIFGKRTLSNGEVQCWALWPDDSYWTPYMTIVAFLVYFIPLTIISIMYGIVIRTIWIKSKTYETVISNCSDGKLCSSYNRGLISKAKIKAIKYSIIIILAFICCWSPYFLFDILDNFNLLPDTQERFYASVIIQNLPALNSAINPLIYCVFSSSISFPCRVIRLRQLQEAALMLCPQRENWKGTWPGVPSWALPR

[5] = target: T3, prolactin releasing hormone receptor (PRLHR) (Homo sapiens, UniProt P49683); assay: PathHunter β-arrestin antagonist assay; type: cell-based
T3 sequence (P49683 1-370): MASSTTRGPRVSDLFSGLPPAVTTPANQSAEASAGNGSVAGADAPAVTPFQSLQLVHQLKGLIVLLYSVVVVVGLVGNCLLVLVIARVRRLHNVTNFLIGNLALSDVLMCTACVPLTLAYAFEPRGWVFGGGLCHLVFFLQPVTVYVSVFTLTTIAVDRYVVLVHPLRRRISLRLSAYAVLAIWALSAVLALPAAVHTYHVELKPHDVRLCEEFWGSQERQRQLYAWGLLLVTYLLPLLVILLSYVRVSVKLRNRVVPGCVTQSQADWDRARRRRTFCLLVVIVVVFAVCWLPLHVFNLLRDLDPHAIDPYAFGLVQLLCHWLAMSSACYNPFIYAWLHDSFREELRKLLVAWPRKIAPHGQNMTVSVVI

chemokine receptor CCR3 = target: T4, chemokine receptor CCR3 (Homo sapiens, UniProt P51677); assay: PathHunter β-arrestin antagonist assay; type: cell-based
T4 sequence (P51677 1-355): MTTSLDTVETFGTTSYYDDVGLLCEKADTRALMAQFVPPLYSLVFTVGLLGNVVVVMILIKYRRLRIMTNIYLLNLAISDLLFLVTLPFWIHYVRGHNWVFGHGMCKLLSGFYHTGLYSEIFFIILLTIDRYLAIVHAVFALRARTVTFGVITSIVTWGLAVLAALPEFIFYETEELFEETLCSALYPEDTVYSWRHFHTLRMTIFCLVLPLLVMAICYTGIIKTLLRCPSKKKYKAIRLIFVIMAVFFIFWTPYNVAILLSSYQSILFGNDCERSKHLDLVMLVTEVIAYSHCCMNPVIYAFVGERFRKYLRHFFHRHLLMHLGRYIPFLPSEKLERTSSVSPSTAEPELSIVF

chemokine receptor CCR8 = chemokine receptor CCR8 (Homo sapiens, UniProt P51685); assay: PathHunter β-arrestin antagonist assay; type: cell-based
CX3CR1 = target: T5, CX3CR1 (Homo sapiens, UniProt P49238); assay: PathHunter β-arrestin antagonist assay; type: cell-based
T5 sequence (P49238 1-355): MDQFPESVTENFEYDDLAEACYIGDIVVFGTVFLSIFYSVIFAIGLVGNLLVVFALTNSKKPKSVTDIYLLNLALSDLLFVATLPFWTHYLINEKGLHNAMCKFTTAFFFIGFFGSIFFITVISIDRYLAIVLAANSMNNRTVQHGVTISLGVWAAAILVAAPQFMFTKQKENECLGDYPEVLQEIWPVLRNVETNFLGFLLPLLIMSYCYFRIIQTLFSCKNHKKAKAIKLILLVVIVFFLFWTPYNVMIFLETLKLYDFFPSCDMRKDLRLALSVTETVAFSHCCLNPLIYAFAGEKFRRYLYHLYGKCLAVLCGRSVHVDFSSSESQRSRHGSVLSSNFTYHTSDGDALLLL

CXCR4 = CXCR4 (Homo sapiens, UniProt P61073); assay: PathHunter β-arrestin antagonist assay; type: cell-based
[6] = target: T6, 5-hydroxytryptamine (serotonin) receptor (HTR2C) (Homo sapiens, UniProt P28335); assay: PathHunter β-arrestin antagonist assay; type: cell-based
T6 sequence (P28335 33-458): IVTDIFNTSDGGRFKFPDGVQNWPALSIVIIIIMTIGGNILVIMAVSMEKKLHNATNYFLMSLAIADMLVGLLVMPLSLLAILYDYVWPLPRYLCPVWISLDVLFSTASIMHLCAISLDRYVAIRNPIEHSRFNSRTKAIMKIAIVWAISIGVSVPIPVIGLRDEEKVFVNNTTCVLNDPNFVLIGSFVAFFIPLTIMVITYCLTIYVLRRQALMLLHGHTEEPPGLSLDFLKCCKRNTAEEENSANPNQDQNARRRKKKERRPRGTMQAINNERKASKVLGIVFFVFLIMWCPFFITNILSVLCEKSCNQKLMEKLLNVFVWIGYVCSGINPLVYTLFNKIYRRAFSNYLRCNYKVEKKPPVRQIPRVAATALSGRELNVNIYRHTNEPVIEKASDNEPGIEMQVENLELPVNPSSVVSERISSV

AVPR2 = AVPR2 (Homo sapiens, UniProt P30518); assay: PathHunter β-arrestin antagonist assay; type: cell-based
oxytocin receptor (OXTR) = target: T7, oxytocin receptor (OXTR) (Homo sapiens, UniProt P30559); assay: PathHunter β-arrestin antagonist assay; type: cell-based
T7 sequence (P30559 1-389): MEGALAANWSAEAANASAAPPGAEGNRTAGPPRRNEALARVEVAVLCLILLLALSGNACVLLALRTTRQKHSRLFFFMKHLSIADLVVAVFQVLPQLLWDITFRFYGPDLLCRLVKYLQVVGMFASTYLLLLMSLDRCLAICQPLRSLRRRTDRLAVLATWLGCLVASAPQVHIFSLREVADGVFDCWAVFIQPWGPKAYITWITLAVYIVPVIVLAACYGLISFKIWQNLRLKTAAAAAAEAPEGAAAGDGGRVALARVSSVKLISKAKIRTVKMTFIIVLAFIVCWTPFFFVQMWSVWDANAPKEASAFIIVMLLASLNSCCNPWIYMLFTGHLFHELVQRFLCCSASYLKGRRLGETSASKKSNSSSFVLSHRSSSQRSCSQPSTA

Chain of AVPR2 (P30518 whole entry): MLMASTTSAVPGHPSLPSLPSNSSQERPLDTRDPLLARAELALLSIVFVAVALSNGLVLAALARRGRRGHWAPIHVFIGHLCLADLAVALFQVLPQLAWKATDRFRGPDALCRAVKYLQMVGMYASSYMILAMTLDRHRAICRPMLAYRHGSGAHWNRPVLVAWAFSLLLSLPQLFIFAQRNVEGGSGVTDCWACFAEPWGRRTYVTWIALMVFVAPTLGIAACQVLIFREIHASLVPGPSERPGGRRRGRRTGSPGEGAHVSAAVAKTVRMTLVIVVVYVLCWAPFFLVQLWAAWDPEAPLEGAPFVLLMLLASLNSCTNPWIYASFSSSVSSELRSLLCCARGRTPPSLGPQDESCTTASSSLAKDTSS
Chain of chemokine receptor CCR8 (P51685 whole entry): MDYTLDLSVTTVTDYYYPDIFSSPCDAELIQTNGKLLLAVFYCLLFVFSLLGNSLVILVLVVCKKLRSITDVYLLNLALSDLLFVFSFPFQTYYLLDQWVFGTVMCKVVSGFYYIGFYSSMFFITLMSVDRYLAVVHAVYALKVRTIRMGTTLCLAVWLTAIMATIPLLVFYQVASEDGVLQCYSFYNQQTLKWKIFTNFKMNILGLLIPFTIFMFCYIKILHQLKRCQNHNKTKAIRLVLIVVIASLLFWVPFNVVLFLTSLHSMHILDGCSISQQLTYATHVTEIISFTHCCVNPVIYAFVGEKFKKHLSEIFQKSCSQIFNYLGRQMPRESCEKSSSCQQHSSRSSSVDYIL
Chain of CXCR4 (P61073 whole entry): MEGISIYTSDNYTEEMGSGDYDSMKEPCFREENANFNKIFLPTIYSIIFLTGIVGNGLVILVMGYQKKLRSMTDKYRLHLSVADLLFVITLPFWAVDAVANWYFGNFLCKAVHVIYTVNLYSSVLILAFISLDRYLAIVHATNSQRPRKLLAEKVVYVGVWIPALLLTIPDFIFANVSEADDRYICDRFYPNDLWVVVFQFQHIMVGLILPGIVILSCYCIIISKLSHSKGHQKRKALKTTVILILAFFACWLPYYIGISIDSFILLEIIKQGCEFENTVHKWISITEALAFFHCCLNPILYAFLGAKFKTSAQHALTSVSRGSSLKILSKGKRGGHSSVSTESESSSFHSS

SMILES: COC(=O)[C@@H]1[C@H]2C[C@@H]3N(CC[C@@]34C(=O)N(Cc3cccc(OC)c3)c3ccccc34)C[C@@H]2CC[C@@H]1OCc1cccc(OC)c1 [Y7g]
- antagonistic activity in the primary screen (panel of 168 GPCRs): significant inhibitory activities
- hit rate (panel of 168 GPCRs): 2.4%
- antagonistic activity in the GPCR screen (AVPR1A): inhibited
- antagonistic activity in the GPCR screen (AVPR1B): inhibited
- antagonistic activity in the GPCR screen [1]: not inhibited
- antagonistic activity in the GPCR screen [2]: not inhibited
- antagonistic activity in the GPCR screen (ADRA2A): not inhibited

- inhibition at 20 µM [3]: ≥ 80%
- inhibition at 20 µM [4]: ≥ 80%
- inhibition at 20 µM [5]: ≥ 80%
SMILES: COC(=O)[C@@H]1[C@H]2C[C@@H](OCc3ccc(Br)cc3)c3[nH]c4ccccc4c3CCN(C#N)C[C@@H]2CC[C@@H]1O [Y6p]
- antagonistic activity in the primary screen (panel of 168 GPCRs): significant inhibitory activities
- hit rate (panel of 168 GPCRs): 2.4%
- number of GPCRs antagonized at ≥80% inhibition (panel of 168 GPCRs): four

- inhibition at 20 µM (chemokine receptor CCR3): ≥ 80%
- inhibition at 20 µM (chemokine receptor CCR8): ≥ 80%
- inhibition at 20 µM (CX3CR1): ≥ 80%
- inhibition at 20 µM (CXCR4): ≥ 80%
- inhibition at 20 µM [6]: ≥ 80%
SMILES: COC(=O)[C@@H]1[C@H]2C[C@@H](c3[nH]c4ccccc4c3CCn3cc(-c4cccc(Cl)c4)nn3)N(C#N)C[C@@H]2CC[C@@H]1O [Y1f]
- antagonistic activity in the primary screen (panel of 168 GPCRs): significant inhibitory activities
- hit rate (panel of 168 GPCRs): 3.0%
- number of GPCRs antagonized at ≥80% inhibition (panel of 168 GPCRs): five

SMILES: COC(=O)[C@@H]1[C@H]2C[C@@H]([C@@]3(CCn4cc(CCCCO)nn4)C(=O)Nc4ccccc43)N(C#N)C[C@@H]2CC[C@@H]1O [Y2e]
- antagonistic activity in the primary screen (panel of 168 GPCRs): inactive

SMILES: COC(=O)[C@@H]1[C@H]2C[C@@H]3OCc4ccccc4-n4c3c(c3ccccc34)CCN(C#N)C[C@@H]2CC[C@@H]1O [Y4a]
- antagonistic activity in the primary screen (panel of 168 GPCRs): inactive

SMILES: COC(=O)[C@@H]1[C@H]2C[C@@H]3N(CC[C@@]34C(=O)N(c3cncc(OC)n3)c3ccccc34)C[C@@H]2CC[C@@H]1O [Y3h]
- antagonistic activity in the primary screen (panel of 168 GPCRs): inactive

SMILES: COC(=O)[C@@H]1[C@H]2C[C@H]3OCc4ccccc4-n4c3c(c3ccccc34)CCN(C#N)C[C@@H]2CC[C@@H]1O [Y5a]
- antagonistic activity in the primary screen (panel of 168 GPCRs): inactive

SMILES: COC(=O)[C@@H]1[C@H]2C[C@H]3c4[nH]c5ccccc5c4CCN3C[C@@H]2CC[C@@H]1O [yohimbine, reference compound]
- inhibition at 20 µM (AVPR2): ≤ 5%
- inhibition at 20 µM (oxytocin receptor (OXTR)): ≤ 5%
- antagonistic activity in the GPCR screen [1]: inhibited
- antagonistic activity in the GPCR screen [2]: inhibited
